# In ChEMBL document CHEMBL1201862, “PubChem BioAssay data set” (2004):
#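 Tested at 5 concentrations; 48 h exposure; 96-well plates; endpoints linearly interpolated, else capped at highest concentration. GI50 marks 50% less growth.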 The source made the active and inactive calls. Rule as the data show it: active = GI50 up to about 1.1 µM and inactive = higher.
# What was measured:
# Assay in all cases: NCI-60 cell line screen, 48 h
# SF-268 = system: SF-268
# HT-29 = system: HT-29
# UO-31 = system: UO-31
# RPMI-8226 = system: RPMI-8226
# NCI-H460 = system: NCI-H460
# SK-OV-3 = system: SK-OV-3
# OVCAR-5 = system: OVCAR-5
# MOLT-4 = system: MOLT-4
# SK-MEL-5 = system: SK-MEL-5
# M14 = system: M14
# SN12C = system: SN12C
# SF-295 = system: SF-295
# SNB-75 = system: SNB-75
# CAKI-1 = system: CAKI-1
# IGROV-1 = system: IGROV-1
# MDA-MB-435 = system: MDA-MB-435
# UACC-62 = system: UACC-62
# LOX IMVI = system: LOX IMVI
# KM12 = system: KM12
# HL-60 = system: HL-60
# K562 = system: K562
# HCT-15 = system: HCT-15
# SNB-19 = system: SNB-19
# PC-3 = system: PC-3
# EKVX = system: EKVX
# DU-145 = system: DU-145
# OVCAR-8 = system: OVCAR-8
# OVCAR-3 = system: OVCAR-3
# NCI-H226 = system: NCI-H226
# HCC 2998 = system: HCC 2998
# SK-MEL-28 = system: SK-MEL-28
# U-251 = system: U-251
# HCT-116 = system: HCT-116
# COLO 205 = system: COLO 205
# MCF7 = system: MCF7
# SW-620 = system: SW-620
# SK-MEL-2 = system: SK-MEL-2
# ACHN = system: ACHN
# NCI/ADR-RES = system: NCI/ADR-RES
# CCRF-CEM = system: CCRF-CEM
# NCI-H23 = system: NCI-H23
# MDA-N = system: MDA-N
# TK-10 = system: TK-10
# 786-0 = system: 786-0
# MDA-MB-231 = system: MDA-MB-231
# HOP-62 = system: HOP-62
# HOP-92 = system: HOP-92
# T47D = system: T47D
# Hs-578T = system: Hs-578T
# A549 = system: A549
# BT-549 = system: BT-549
# OVCAR-4 = system: OVCAR-4
# UACC-257 = system: UACC-257
# A498 = system: A498
smiles,measurement,setting,value
Cn1c(=O)c2c(nc3n2CC(=O)N3CCCCl)n(C)c1=O,GI50,SF-268,> 100 µM (inactive)
same,GI50,HT-29,> 100 µM (inactive)
same,GI50,UO-31,> 100 µM (inactive)
same,GI50,RPMI-8226,> 100 µM (inactive)
same,GI50,NCI-H460,> 100 µM (inactive)
same,GI50,SK-OV-3,> 100 µM (inactive)
same,GI50,OVCAR-5,> 100 µM (inactive)
same,GI50,MOLT-4,83.8 µM (inactive)
same,GI50,SK-MEL-5,> 100 µM (inactive)
same,GI50,M14,> 100 µM (inactive)
same,GI50,SN12C,> 100 µM (inactive)
same,GI50,SF-295,> 100 µM (inactive)
same,GI50,SNB-75,> 100 µM (inactive)
same,GI50,CAKI-1,> 100 µM (inactive)
same,GI50,IGROV-1,> 100 µM (inactive)
same,GI50,MDA-MB-435,> 100 µM (inactive)
same,GI50,UACC-62,> 100 µM (inactive)
same,GI50,LOX IMVI,> 100 µM (inactive)
same,GI50,KM12,> 100 µM (inactive)
same,GI50,HL-60,> 100 µM (inactive)
same,GI50,K562,> 100 µM (inactive)
same,GI50,HCT-15,> 100 µM
same,GI50,SNB-19,> 100 µM (inactive)
same,GI50,PC-3,> 100 µM (inactive)
same,GI50,EKVX,> 100 µM (inactive)
same,GI50,DU-145,> 100 µM (inactive)
same,GI50,OVCAR-8,> 100 µM (inactive)
same,GI50,OVCAR-3,> 100 µM (inactive)
same,GI50,NCI-H226,> 100 µM (inactive)
same,GI50,HCC 2998,> 100 µM (inactive)
same,GI50,SK-MEL-28,> 100 µM (inactive)
same,GI50,U-251,> 100 µM (inactive)
same,GI50,HCT-116,> 100 µM (inactive)
same,GI50,COLO 205,> 100 µM (inactive)
same,GI50,MCF7,> 100 µM (inactive)
same,GI50,SW-620,> 100 µM (inactive)
same,GI50,SK-MEL-2,> 100 µM (inactive)
same,GI50,ACHN,> 100 µM (inactive)
same,GI50,NCI/ADR-RES,> 100 µM (inactive)
same,GI50,CCRF-CEM,> 100 µM (inactive)
same,GI50,NCI-H23,> 100 µM (inactive)
same,GI50,MDA-N,> 100 µM (inactive)
same,GI50,TK-10,> 100 µM (inactive)
same,GI50,786-0,> 100 µM (inactive)
same,GI50,MDA-MB-231,> 100 µM (inactive)
same,GI50,HOP-62,> 100 µM (inactive)
same,GI50,HOP-92,> 100 µM (inactive)
same,GI50,T47D,> 100 µM (inactive)
same,GI50,Hs-578T,> 100 µM (inactive)
same,GI50,A549,> 100 µM (inactive)
same,GI50,BT-549,> 100 µM (inactive)
same,GI50,OVCAR-4,> 100 µM (inactive)
same,GI50,UACC-257,> 100 µM (inactive)
same,GI50,A498,> 100 µM (inactive)
